molecular target: T1, human M4 muscarinic acetylcholine receptor (Homo sapiens, UniProt P08173); assay: human FLIPR-based M4 PAM assay (calcium mobilization, CHO-K1 cells with human M4 receptor and Gαqi5); assay type: cell-based; conditions: inflection point (IP) of dose response curve, acetylcholine added at 20% of maximum response, read-out: M4 FLIPPR Hu IP
T1 construct: expressed in transfected cells; host or cells: CHO-K1
T1 sequence (P08173 1-479): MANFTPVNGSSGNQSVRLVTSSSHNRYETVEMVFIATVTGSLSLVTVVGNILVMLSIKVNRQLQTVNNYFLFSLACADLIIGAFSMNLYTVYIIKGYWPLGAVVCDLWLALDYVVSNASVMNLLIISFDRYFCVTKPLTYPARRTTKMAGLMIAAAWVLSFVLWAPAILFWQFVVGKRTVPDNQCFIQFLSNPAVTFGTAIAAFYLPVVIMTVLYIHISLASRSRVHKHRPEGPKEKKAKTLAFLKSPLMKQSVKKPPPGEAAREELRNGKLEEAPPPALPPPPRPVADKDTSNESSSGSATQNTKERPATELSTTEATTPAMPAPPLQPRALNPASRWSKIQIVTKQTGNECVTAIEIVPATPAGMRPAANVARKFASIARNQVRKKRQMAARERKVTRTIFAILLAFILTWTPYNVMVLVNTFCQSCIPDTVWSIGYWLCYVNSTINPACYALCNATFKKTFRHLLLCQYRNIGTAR
Procedure: In a typical experiment the M4 muscarinic acetylcholine receptor modulating activity of the compounds of the present invention was determined in accordance with the following experimental method. CHO-K1 cells stably transfected with human M4 receptor and chimeric G-protein Gαqi5 (Coward P, et al., Analytical Biochemistry, 270:242-248 (1999)) are thawed from liquid N2 storage, resuspended in growth medium, plated in black, clear bottom 384 well plates, and incubated 16-20 hours at 37° C., 5% CO2. On the day of assay, growth medium is removed, the cells are washed 2 times with wash buffer, and cells are incubated in dye loading buffer at 37° C., 5% CO2 for ˜1 hour. Following dye loading the cell plates are placed in a FLIPR Tetra instrument and while monitoring dye fluorescence (excitation […]), 10 uL of test substance at increasing concentrations is added, and fluorescence values are recorded for 4 min. Next, 10 uL of acetylcholine is added (final concentration calculated so as to achieve 20% of the maximum acetycholine response), and the fluorescence reading is continued for 3.5 min. In some cases, a third addition of acetylcholine (final concentration calculated to achieve 70% of the maximal acetylcholine response) is performed. The resulting dose response curves are fit to a 4 parameter logistic equation and the final result is determined as the inflection point (IP) of the curve
CHO-K1 cells stably transfected with human M4 receptor and chimeric G-protein Gαqi5 are thawed from liquid N2 storage, resuspended in growth medium, plated in black, clear bottom 384 well plates, and incubated 16-20 hours at 37° C., 5% CO2.
On the day of assay, growth medium is removed, the cells are washed 2 times with wash buffer, and cells are incuabted in dye loading buffer at 37° C., 5% CO2 for ˜1 h. Following dye loading the cell plates are placed in a FLIPR Tetra instrument and while monitoring dye fluorescence ([…]), 10 uL of test substance at increasing concentrations is added, and fluorescence values are recorded for 4 min. Next, 10 uL of acetylcholine is added (final concentration calculated so as to achieve 20% of the maximum acetycholine response), and the fluorescence reading is continued for 3.5 min. In some cases, a third addition of acetylcholine (final concentration calculated to achieve 70% of the maximal acetylcholine response) is performed.

| EC50 [nM] | SMILES |
| --- | --- |
| 212 | CC(Cc1ncc(-c2ccc(C#N)nc2-c2ccn3ccnc3c2)o1)C(F)(F)F (racemic) [Example 38, 6-(imidazo[1,2-a]-pyridin-7-yl)-5-(2-(3,3,3-trifluoro-2-methylpropyl)oxazol-5-yl)picolinonitrile] |
| 24 | CC1(Cc2ncc(-c3cc4c(nc3-c3cnc5c(c3)C(=O)NC5)C(F)CC4)o2)CCCC1 (single isomer, unassigned) [Example 44, 3-(7-fluoro-3-(2-((1-methylcyclopentyl)methyl)oxazol-5-yl)-6,7-dihydro-5H-cyclopenta[b]pyridin-2-yl)-6,7-dihydro-5H-pyrrolo[3,4-b]pyridin-5-one] |
| 42 | CC1(Cc2ncc(-c3cc4c(nc3-c3cnc5c(c3)C(=O)NC5)C(F)CC4)o2)CCCC1 (single isomer, unassigned) [Example 45, 3-(7-fluoro-3-(2-((1-methylcyclopentyl)methyl)oxazol-5-yl)-6,7-dihydro-5H-cyclopenta[b]pyridin-2-yl)-6,7-dihydro-5H-pyrrolo[3,4-b]pyridin-5-one] |
| 60 | N#Cc1ccc(-c2cnc(CC(F)C3CC3)o2)c(-c2ccc3cccnc3c2)n1 (single isomer, unassigned) [Example 70, 5-(2-(2-cyclopropyl-2-fluoroethyl)oxazol-5-yl)-6-(quinolin-7-yl)picolinonitrile (single compound)] |
| 54 | N#Cc1ccc(-c2cnc(CC(F)C3CC3)o2)c(-c2ccc3cccnc3c2)n1 (single isomer, unassigned) [Example 71, 5-(2-(2-cyclopropyl-2-fluoroethyl)oxazol-5-yl)-6-(quinolin-7-yl)picolinonitrile (single compound)] |
| 7 | Cc1ccc(-c2cnc(CC3CCCC3)o2)c(-c2ccc3cccnc3c2)n1 [Example 1, 2-(cyclopentylmethyl)-5-(6-methyl-2-(quinolin-7-yl)pyridin-3-yl)oxazole] |
| 13 | COc1cc2ccc(-c3nc(C)ccc3-c3cnc(CC4CCCC4)o3)cc2nn1 [Example 2, 2-(cyclopentyl-methyl)-5-(2-(3-methoxycinnolin-7-yl)-6-methyl-pyridin-3-yl)-oxazole] |
| 42 | CN1Cc2ccc(-c3ncccc3-c3cnc(CC4CCCC4)o3)cc2C1=O [Example 3, 6-(3-(2-(cyclo-pentylmethyl)-oxazol-5-yl)-pyridin-2-yl)-2-methylisoindolin-1-one] |
| 30 | CN1Cc2ccc(-c3nc4c(cc3-c3cnc(CC5(C)CCCC5)o3)CCC4)cc2C1=O [Example 4, 2-methyl-6-(3-(2-((1-methylcyclopentyl)methyl)oxazol-5-yl)-6,7-dihydro-5H-cyclopenta[b]pyridin-2-yl)isoindolin-1-one] |
| 170 | CC(=O)OC1CCc2cc(-c3cnc(CC4(C)CCCC4)o3)c(-c3ccc4ccc(F)nc4c3)nc21 (centres unmarked) [Example 5, 2-(2-fluoroquinolin-7-yl)-3-(2-((1-methylcyclopentyl)-methyl)oxazol-5-yl)-6,7-dihydro-5H-cyclopenta[b]pyridin-7-yl acetate] |
| 14 | CN1Cc2ccc(-c3nc(C#N)ccc3-c3cnc(CC4(C)CCCC4)o3)cc2C1=O [Example 6, 6-(2-methyl-3-oxo-isoindolin-5-yl)-5-(2-((1-methyl-cyclopentyl)methyl)-oxazol-5-yl)picolino-nitrile] |
| 34 | CC1(Cc2ncc(-c3ccc(C#N)nc3-c3ccc4cccnc4c3)o2)CCCC1 [Example 7, 5-(2-((1-methyl-cyclopentyl)methyl)-oxazol-5-yl)-6-(quinolin-7-yl)-picolinonitrile] |
| 44 | CN1Cc2ccc(-c3nc(F)ccc3-c3cnc(CC4(C)CCCC4)o3)cc2C1=O [Example 8, 6-(6-fluoro-3-(2-((1-methylcyclo-pentyl)methyl)oxazol-5-yl)pyridin-2-yl)-2-methylisoindolin-1-one] |
| 108 | CC1(Cc2ncc(-c3ccc(C#N)nc3N3CCn4ccnc4C3)o2)CCCC1 [Example 9, 6-(5,6-dihydro-imidazo[1,2-a]-pyrazin-7(8H)-yl)-5-(2-((1-methyl-cyclopentyl)-methyl)oxazol-5-yl)picolinonitrile] |
| 209 | CN1C(=O)c2cc(-c3nc4c(cc3-c3cnc(CC5(C)CCCC5)o3)CCC4)cnc2C1=O [Example 10, 6-methyl-3-(3-(2-((1-methylcyclo-pentyl)methyl)oxazol-5-yl)-6,7-dihydro-5H-cyclopenta[b]-pyridin-2-yl)-5H-pyrrolo[3,4-b]-pyridine-5,7(6H)-dione] |
| 69 | CC(C)(C)Cc1ncc(-c2ccc(C#N)nc2-c2ccc3cccnc3c2)o1 [Example 11, 5-(2-neopentyl-oxazol-5-yl)-6-(quinolin-7-yl)-picolinonitrile] |
| 34 | CN1Cc2ncc(-c3nc(C#N)ccc3-c3cnc(CC4(C)CCCC4)o3)cc2C1=O [Example 12, 6-(6-methyl-5-oxo-6,7-dihydro-5H-pyrrolo[3,4-b]-pyridin-3-yl)-5-(2-((1-methyl-cyclopentyl)-methyl)oxazol-5-yl)picolinonitrile] |
| 128 | CC(C)(C)Cc1ncc(-c2ccc(C(F)F)nc2-c2ccc3cccnc3c2)o1 [Example 13, 5-(6-(difluoro-methyl)-2-(quinolin-7-yl)pyridin-3-yl)-2-neopentyloxazole] |
| 172 | COc1cc2ccc(-c3nc(C(F)F)ccc3-c3cnc(CC(C)(C)C)o3)cc2nn1 [Example 14, 5-(6-(difluoro-methyl)-2-(3-methoxycinnolin-7-yl)pyridin-3-yl)-2-neopentyloxazole] |
| 80 | CN1Cc2ccc(-c3nc(C(F)F)ccc3-c3cnc(CC(C)(C)C)o3)cc2C1=O [Example 15, 6-(6-(difluoro-methyl)-3-(2-neopentyloxazol-5-yl)pyridin-2-yl)-2-methylisoindolin-1-one] |
| 61 | CC(C)(C)Cc1ncc(-c2ccc(C#N)nc2-c2ccn3ccnc3c2)o1 [Example 16, 6-(imidazo[1,2-a]-pyridin-7-yl)-5-(2-neopentyloxazol-5-yl)picolinonitrile] |
| 26 | CN1Cc2ncc(-c3nc4c(cc3-c3cnc(CC5(C)CCCC5)o3)CCC4)cc2C1=O [Example 17, 6-methyl-3-(3-(2-((1-methylcyclo-pentyl)methyl)-oxazol-5-yl)-6,7-dihydro-5H-cyclo-penta[b]pyridin-2-yl)-6,7-dihydro-5H-pyrrolo[3,4-b]-pyridin-5-one] |
| 150 | CN1Cc2ncc(-c3nc(C#N)ccc3-c3cnc(CC(C)(C)C)o3)cc2C1=O [Example 18, 6-(6-methyl-5-oxo-6,7-dihydro-5H-pyrrolo[3,4-b]-pyridin-3-yl)-5-(2-neopentyloxazol-5-yl)picolinonitrile] |
| 73 | CC(C)(C)Cc1ncc(-c2ccc(C(F)F)nc2-c2ccn3ccnc3c2)o1 [Example 19, 5-(6-(difluoro-methyl)-2-(imidazo-[1,2-a]pyridin-7-yl)pyridin-3-yl)-2-neopentyloxazole] |
| 163 | CN1Cc2ncc(-c3nc(C(F)F)ccc3-c3cnc(CC(C)(C)C)o3)cc2C1=O [Example 20, 3-(6-(difluoro-methyl)-3-(2-neopentyloxazol-5-yl)pyridin-2-yl)-6-methyl-6,7-dihydro-5H-pyrrolo[3,4-b]-pyridin-5-one] |
| 82 | N#Cc1ccc(-c2cnc(CC3(C(F)(F)F)CC3)o2)c(-c2ccn3ccnc3c2)n1 [Example 21, 6-(imidazo[1,2-a]-pyridin-7-yl)-5-(2-((1-(trifluoromethyl)-cyclopropyl)methyl)-oxazol-5-yl)picolino-nitrile] |
